Measurements reported in PMC8205226, “HIV-1 Integrase Inhibitors with Modifications That Affect Their Potencies against Drug Resistant Integrase Mutants” (ACS Infectious Diseases, 2021).

Tests used:
HIV-1 IN mutant Y143R [1] = test: single-round infectivity assay, Y143R IN mutant; type: cell-based
Description: (§1) Figure 2 Antiviral activities of the new compounds against RAL-resistant mutants. The EC50 values were determined using a vector that carries WT HIV-1 IN and the RAL-resistant mutants in a single round infection assay. […] Error bars represent the standard deviations of independent experiments, n = 4, performed in triplicate. The graph has a maximum value of 550 nM.
(§2) WT and mutant HIV-1 viral vectors were used in single-round infectivity assays to determine the antiviral potencies (EC50 values) of the compounds and the effects of the mutants on the EC50 values as previously described.[30],[54] Single round infectivity measurements were determined as done previously.[38]
(§3) The vector pNLNgoMIVR-ΔENV.LUC has been described previously.[26] To produce the new IN mutants used in this study, the IN open reading frame was removed from pNLNgoMIVR-ΔENV.LUC by digestion with KpnI and SalI, and the resulting fragment was inserted between the KpnI and SalI sites of pBluescript KS+. Using that construct as the wild-type template, we prepared the following HIV-1 IN mutants using the QuikChange II XL site directed mutagenesis kit (Agilent Technologies, Santa Clara, CA) protocol: N117A, N117H, P142A, P142H, P142S, Y143C, Y143H, S230R, R231G, and R231K. The following sense oligonucleotides were used with matching cognate antisense oligonucleotides (not shown) (Integrated DNA Technologies, Coralville, IA) in the mutagenesis: N117A, 5′-[…]-3′; N117H, 5′-[…]-3′; P142A, 5′-[…]-3′; P142H, 5′-[…]-3′; P142S, 5′-[…]-3′; Y143C, 5′- […]-3′; Y143H, 5′-[…]-3′; S230R, 5′- […]-3′; R231G, 5′-[…]-3′; R231K, 5′-[…]-3′.

HIV-1 IN mutant N155H [2] = test: single-round infectivity assay, N155H IN mutant; type: cell-based
Description: as §1, §2, §3

[3] = system: HIV-1 IN double mutant G140S/Q148H; test: single-round infectivity assay, G140S/Q148H IN double mutant; type: cell-based
Description: as §1, §2, §3

HIV-1 IN mutant N117A = test: single-round infectivity assay, N117A IN mutant; type: cell-based
Description: (§4) The EC50 values were determined using a vector that carries the IN mutant in a single round infection assay. […] Error bars represent the standard deviations of independent experiments, n = 4, performed in triplicate.
as §2, §3

HIV-1 IN mutant N117H = test: single-round infectivity assay, N117H IN mutant; type: cell-based
Description: as §4, §2, §3

HIV-1 IN mutant G118R = test: single-round infectivity assay, G118R IN mutant; type: cell-based
Description: as §4, §2, §3

HIV-1 IN mutant S119R = test: single-round infectivity assay, S119R IN mutant; type: cell-based
Description: as §4, §2, §3

HIV-1 IN mutant Y143C = test: single-round infectivity assay, Y143C IN mutant; type: cell-based
Description: as §4, with “Figure 4 Mutations in the β5-α3 loop affect the antiviral potencies of the new compounds. The” for “The”
as §2, §3

HIV-1 IN mutant Y143H = test: single-round infectivity assay, Y143H IN mutant; type: cell-based
Description: as §4, with “Figure 4 Mutations in the β5-α3 loop affect the antiviral potencies of the new compounds. The” for “The”
as §2, §3

HIV-1 IN mutant P142A = test: single-round infectivity assay, P142A IN mutant; type: cell-based
Description: as §4, with “Figure 4 Mutations in the β5-α3 loop affect the antiviral potencies of the new compounds. The” for “The”
as §2, §3

HIV-1 IN mutant P142H = test: single-round infectivity assay, P142H IN mutant; type: cell-based
Description: as §4
Single round infectivity measurements were determined as done previously.[38]
as §3

HIV-1 IN mutant P142S = test: single-round infectivity assay, P142S IN mutant; type: cell-based
Description: as §4, with “Figure 4 Mutations in the β5-α3 loop affect the antiviral potencies of the new compounds. The” for “The”
as §2, §3

HIV-1 IN mutant S230R = test: single-round infectivity assay, S230R IN mutant; type: cell-based
Description: as §4, with “Figure 5 Antiviral potencies of the new compounds against IN with mutations in the […]. The” for “The”
as §2, §3

HIV-1 IN mutant R231G = test: single-round infectivity assay, R231G IN mutant; type: cell-based
Description: as §4, with “Figure 5 Antiviral potencies of the new compounds against IN with mutations in the […]. The” for “The”
as §2, §3

HIV-1 IN mutant R231K = test: single-round infectivity assay, R231K IN mutant; type: cell-based
Description: as §4, with “Figure 5 Antiviral potencies of the new compounds against IN with mutations in the […]. The” for “The”
as §2, §3

WT HIV-1 = details: vector carrying WT HIV-1 IN, single round infection; previously reported; cited from earlier work
HIV-1 IN mutant Y143R [4] = details: single round infection; previously reported; cited from earlier work
HIV-1 IN mutant N155H [5] = details: single round infection; previously reported; cited from earlier work
[6] = system: HIV-1 IN double mutant G140S/Q148H; details: single round infection; previously reported; cited from earlier work
[7] = fold change in EC50, IN mutant versus WT HIV-1

COC(=O)CNc1c(C(=O)NCc2ccc(F)cc2F)c(=O)n(O)c2ncccc12 [5′g]
ratio of the EC50s (our compound relative to DTG) against Y143R (HIV-1 IN mutant Y143R [1]; EC50 compound / EC50 DTG): 1.1
FC Y143R (HIV-1 IN mutant Y143R [1]; [7]): 1.2
ratio of the EC50s (our compound relative to DTG) against N155H (HIV-1 IN mutant N155H [2]; EC50 compound / EC50 DTG): 5.3
FC N155H (HIV-1 IN mutant N155H [2]; [7]): 5.0
ratio of the EC50s (our compound relative to DTG) against G140S/Q148H ([3]; EC50 compound / EC50 DTG): 6.1
FC G140S/Q148H [3, 7]: 9.3
ratio of the EC50s (our compound relative to DTG) against N117A (HIV-1 IN mutant N117A; EC50 compound / EC50 DTG): 2.4
EC50 (HIV-1 IN mutant N117A; Human immunodeficiency virus 1, read-out: EC50 values N117A): 1.2 ± 0.2 nM
FC N117A (HIV-1 IN mutant N117A; [7]): 0.3
ratio of the EC50s (our compound relative to DTG) against N117H (HIV-1 IN mutant N117H; EC50 compound / EC50 DTG): 2.3
EC50 (HIV-1 IN mutant N117H; Human immunodeficiency virus 1, read-out: EC50 values N117H): 5.6 ± 0.9 nM
FC N117H (HIV-1 IN mutant N117H; [7]): 1.5
ratio of the EC50s (our compound relative to DTG) against G118R (HIV-1 IN mutant G118R; EC50 compound / EC50 DTG): 13.1
EC50 (HIV-1 IN mutant G118R; Human immunodeficiency virus 1, read-out: EC50 values G118R): 171 ± 3.2 nM
ratio of the EC50s (our compound relative to DTG) against S119R (HIV-1 IN mutant S119R; EC50 compound / EC50 DTG): 9.7
EC50 (HIV-1 IN mutant S119R; Human immunodeficiency virus 1, read-out: EC50 values S119R): 22.3 ± 1.7 nM
FC S119R (HIV-1 IN mutant S119R; [7]): 5.9
ratio of the EC50s (our compound relative to DTG) against Y143C (HIV-1 IN mutant Y143C; EC50 compound / EC50 DTG): 28.1
EC50 (HIV-1 IN mutant Y143C; Human immunodeficiency virus 1, read-out: EC50 values Y143C, single round infection, n = 4): 39.3 ± 7.3 nM
FC Y143C (HIV-1 IN mutant Y143C; [7]): 10.3
ratio of the EC50s (our compound relative to DTG) against Y143H (HIV-1 IN mutant Y143H; EC50 compound / EC50 DTG): 3.6
EC50 (HIV-1 IN mutant Y143H; Human immunodeficiency virus 1, read-out: EC50 values Y143H, single round infection, n = 4): 7.9 ± 1 nM
FC Y143H (HIV-1 IN mutant Y143H; [7]): 2.1
ratio of the EC50s (our compound relative to DTG) against P142A (HIV-1 IN mutant P142A; EC50 compound / EC50 DTG): 5.6
EC50 (HIV-1 IN mutant P142A; Human immunodeficiency virus 1, read-out: EC50 values P142A): 14.1 ± 0.3 nM
FC P142A (HIV-1 IN mutant P142A; [7]): 3.7
ratio of the EC50s (our compound relative to DTG) against P142H (HIV-1 IN mutant P142H; EC50 compound / EC50 DTG): 4.6
EC50 (HIV-1 IN mutant P142H; Human immunodeficiency virus 1, read-out: EC50 values P142H): 12.8 ± 2.9 nM
FC P142H (HIV-1 IN mutant P142H; [7]): 3.4
ratio of the EC50s (our compound relative to DTG) against P142S (HIV-1 IN mutant P142S; EC50 compound / EC50 DTG): 12.4
EC50 (HIV-1 IN mutant P142S; Human immunodeficiency virus 1, read-out: EC50 values P142S): 27.2 ± 4.4 nM
FC P142S (HIV-1 IN mutant P142S; [7]): 7.2
ratio of the EC50s (our compound relative to DTG) against S230R (HIV-1 IN mutant S230R; EC50 compound / EC50 DTG): 1.0
EC50 (HIV-1 IN mutant S230R; Human immunodeficiency virus 1, read-out: EC50 values S230R): 4.5 ± 1.5 nM
FC S230R (HIV-1 IN mutant S230R; [7]): 1.2
ratio of the EC50s (our compound relative to DTG) against R231G (HIV-1 IN mutant R231G; EC50 compound / EC50 DTG): 6.9
EC50 (HIV-1 IN mutant R231G; Human immunodeficiency virus 1, read-out: EC50 values R231G): 9.7 ± 2.4 nM
FC R231G (HIV-1 IN mutant R231G; [7]): 2.6
ratio of the EC50s (our compound relative to DTG) against R231K (HIV-1 IN mutant R231K; EC50 compound / EC50 DTG): 2.2
EC50 (HIV-1 IN mutant R231K; Human immunodeficiency virus 1, read-out: EC50 values R231K, single round infection, n = 4): 9.2 ± 2.1 nM
FC R231K (HIV-1 IN mutant R231K; [7]): 2.4
EC50 (WT HIV-1): 3.8 ± 1.2 nM
EC50 (HIV-1 IN mutant Y143R [4]): 4.6 ± 2.2 nM
EC50 (HIV-1 IN mutant N155H [5]): 19 ± 6.9 nM
EC50 [6]: 35.5 ± 15.9 nM
